Measured values as given in patent US20260091027A1, “STILBENE DERIVATIVES AS WELL AS PREPARATION METHOD THEREFOR AND USE THEREOF” (THEDERMA SHANGHAI CO., LTD., priority 2022, published 2026).

Tests used:
[1] = Illumination stability experiment (HPLC content); format: physicochemical; conditions: visible light 5000 ± 500 lx, ultraviolet light 250 μW/cm^2
Description: Test Example 2. Illumination Stability Experiment
• Stability chamber, model: ICH-110L, Memmert, USA; • High performance liquid chromatograph (HPLC), model: 1260, Agilent.
• Detection wavelength: 220 nM, 254 nM • Chromatographic column: Agilent ZORBAX SB-C8 4.6×250 mm, 5 μm • Mobile phase A: water • Mobile phase B: acetonitrile • Flow rate: 1.0 mL/min • Column temperature: 35° C. • Injection volume: 10 μL
• 1. A test compound was weighed out and placed into the stability chamber; • 2. a light source was turned on, with visible light of 5000±500 lx and ultraviolet light of 250 μW/cm^2; • 3. sampling was performed at 0 h, 8 h, 24 h, and 72 h, and the sample was dissolved in an aqueous acetonitrile solution with a volume fraction of 50%; • 4. HPLC was used for detection, and the content was determined by using the area normalization method.

[2] = target: T1, AHR protein (Homo sapiens, UniProt P35869); assay: Luciferase reporter gene assay (AHR agonistic activity); format: cell-based; conditions: HepG2-Lucia AHR cells, 24 h incubation; read-out: Luciferase-labeled human hepatoma cells (HepG2-Lucia) AHR agonist EC50
T1 construct: Human hepatoma cells HepG2-Lucia expressing AHR and luciferase; host or cells: HepG2-Lucia AHR (human hepatoma)
T1 sequence (P35869 11-848): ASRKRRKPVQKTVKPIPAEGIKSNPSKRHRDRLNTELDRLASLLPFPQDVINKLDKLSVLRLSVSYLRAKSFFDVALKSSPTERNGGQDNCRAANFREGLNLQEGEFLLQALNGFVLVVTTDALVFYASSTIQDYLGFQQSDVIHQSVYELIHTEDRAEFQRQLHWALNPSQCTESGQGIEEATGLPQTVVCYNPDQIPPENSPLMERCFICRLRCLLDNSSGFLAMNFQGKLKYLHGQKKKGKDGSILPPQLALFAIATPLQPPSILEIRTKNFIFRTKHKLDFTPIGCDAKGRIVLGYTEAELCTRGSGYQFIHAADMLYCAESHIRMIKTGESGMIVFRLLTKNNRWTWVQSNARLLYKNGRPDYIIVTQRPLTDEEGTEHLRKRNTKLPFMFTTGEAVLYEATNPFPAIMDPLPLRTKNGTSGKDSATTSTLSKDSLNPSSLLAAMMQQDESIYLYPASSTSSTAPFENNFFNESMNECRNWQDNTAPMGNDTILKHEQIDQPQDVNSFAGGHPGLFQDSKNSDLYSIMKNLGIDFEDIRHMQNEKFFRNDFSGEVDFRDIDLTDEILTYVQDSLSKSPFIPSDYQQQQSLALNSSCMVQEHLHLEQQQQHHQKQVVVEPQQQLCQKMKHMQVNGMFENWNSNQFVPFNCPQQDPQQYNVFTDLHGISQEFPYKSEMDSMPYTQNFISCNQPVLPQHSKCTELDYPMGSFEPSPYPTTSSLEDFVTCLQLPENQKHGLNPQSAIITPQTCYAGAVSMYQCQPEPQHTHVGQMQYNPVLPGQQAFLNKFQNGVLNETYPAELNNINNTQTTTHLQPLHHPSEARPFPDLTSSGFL
Description: Luciferase Reporter Gene Assay
In this test example, a luciferase reporter gene assay was performed to assay the agonistic activity effect of the compounds of the present disclosure on AHR protein.
• Human hepatoma cells HepG2-Lucia expressing AHR and luciferase were purchased from InvivoGen with the catalog number of hpgl-ahr;
• 1. HepG2-Lucia AHR cells were cultured in an EMEM medium containing 10% inactivated fetal bovine serum, 1×NEAA, penicillin-streptomycin, and 100 μg/mL Zeocin (bleomycin). The culture temperature was 37° C. and the concentration of carbon dioxide was 5%. • 2. After the cells were grown to about 80% confluency, the cells were digested, centrifuged, resuspended, and counted. The cells were seeded into a 384-well plate at 40 μL/well. • 3. Different concentrations of the test compounds were added by using ECHO at 40 nL/well. • 4. The 384-well plate to which the compounds were added was incubated in the incubator for 24 h. • 5. The supernatant was collected, a QUANTI-Luc Gold detection reagent was added, and the luminescence signal values were read by using the multifunctional microplate reader.

Compound | Liquid chromatography content (220 nM, %) ([1]; batch 1, 0 h) | Liquid chromatography content (220 nM, %) ([1]; batch 1, 8 h) | Liquid chromatography content (220 nM, %) ([1]; batch 1, 24 h) | Liquid chromatography content (220 nM, %) ([1]; batch 1, 72 h) | Liquid chromatography content (220 nM, %) ([1]; batch 2, 0 h) | Liquid chromatography content (220 nM, %) ([1]; batch 2, 8 h) | Liquid chromatography content (220 nM, %) ([1]; batch 2, 24 h) | Liquid chromatography content (220 nM, %) ([1]; batch 2, 72 h) | EC50 [2]
CC(C)c1c(O)cc(/C=C/c2ccccc2)cc1O [Benvitimod, reference compound] | 99.87% | 85.14% | 74.20% | 69.53% |  |  |  |  | 
CC(C)c1c(O)cc(/C=C/c2cccc(F)n2)cc1O [Comparative Example 1, reference compound] |  |  |  |  | 96.99% | 85.98% | 82.13% | 72.30% | 
CC(C)c1c(O)cc(/C=C/c2ccccc2)c(Cl)c1O [Compound 1, (E)-4-Chloro-2-isopropyl-5-styrylbenzene-1,3-diol] |  |  |  |  |  |  |  |  | 238 nM
Cc1c(/C=C/c2ccccc2)cc(O)c(C(C)C)c1O [Compound 2, (E)-2-Isopropyl-4-methyl-5-styrylbenzene-1,3-diol] |  |  |  |  |  |  |  |  | 177 nM
CC(C)c1c(O)cc(/C=C/c2ccccc2)c(F)c1O [Compound 3, (E)-4-Fluoro-2-isopropyl-5-styrylbenzene-1,3-diol] | 97.25% | 97.33% | 96.06% | 97.71% |  |  |  |  | 57 nM
CC(C)c1c(O)cc(/C=C/c2ccccc2)c(Br)c1O [Compound 4, (E)-4-Bromo-2-isopropyl-5-styrylbenzene-1,3-diol] |  |  |  |  |  |  |  |  | 219 nM
CC(C)c1c(O)cc(/C=C/c2ccc(F)cc2)c(F)c1O [Compound 5, (E)-4-Fluoro-5-(4-fluorostyryl)-2-isopropylbenzene-1,3-diol] |  |  |  |  | 99.30% | 98.80% | 99.22% | 99.06% | 6 nM
CC(C)c1c(O)cc(/C=C/c2ccccc2F)c(F)c1O [Compound 6, (E)-4-Fluoro-5-(2-fluorostyryl)-2-isopropylbenzene-1,3-diol] |  |  |  |  | 98.31% | 98.37% | 98.27% | 98.68% | 10 nM
CC(C)c1c(O)cc(/C=C/c2ncccc2F)c(F)c1O [Compound 7, (E)-4-Fluoro-5-[2-(3-fluoropyridin-2-yl)vinyl]-2-isopropylbenzene-1,3-diol] |  |  |  |  | 98.70% | 95.84% | 91.56% | 89.57% | 30 nM
CC(C)c1c(O)cc(/C=C/c2ncccc2Cl)c(F)c1O [Compound 8, (E)-5-[2-(3-Chloropyridin-2-yl)vinyl]-4-fluoro-2-isopropylbenzene-1,3-diol] |  |  |  |  |  |  |  |  | 13 nM
CC(C)c1c(O)cc(/C=C/c2ccc(F)cn2)c(F)c1O [Compound 9, (E)-4-Fluoro-5-[2-(5-fluoropyridin-2-yl)vinyl]-2-isopropylbenzene-1,3-diol] |  |  |  |  | 99.46% | 98.65% | 97.46% | 92.06% | 20 nM
CC(C)c1c(O)cc(/C=C/c2cccc(F)n2)c(F)c1O [Compound 14, (E)-4-Fluoro-5-[2-(6-fluoropyridin-2-yl)vinyl]-2-isopropylbenzene-1,3-diol] |  |  |  |  | 88.32% | 87.83% | 88.31% | 84.37% | 27 nM
CC(C)c1c(O)cc(/C=C/c2ccncc2)c(F)c1O [Compound 18, (E)-4-Fluoro-2-isopropyl-5-[2-(pyridin-4-yl)vinyl]benzene-1,3-diol] |  |  |  |  |  |  |  |  | 66 nM
(E)-4-Fluoro-2-isopropyl-5-[2-(pyridin-2-yl)vinyl]benzene-1,3-diol [Compound 16] |  |  |  |  | 97.58% | 97.52% | 96.88% | 96.81% | 
